± gives the expanded uncertainty stated by the source.
How the values were obtained:
[1] = Crystal; DSC
[2] = Molar enthalpy of transition or fusion; details: Crystal; DSC

Triple point temperature [1]: 369.26 ± 1.2 K
Molar enthalpy of transition or fusion [2]: 3.64 ± 0.167 kcal/mol
SMILES: c1ccc2[nH]nnc2c1 [benzotriazole]

From the NIST ThermoML archive (doi:10.1021/acs.jced.7b01085)
